# Tests used:
# FN, COL1A1, and α-SMA = test: qRT-PCR of fibrosis-related genes in TGF-β1-induced MRC-5 cells; type: cell-based, human; settings: MRC-5, 10 μM pretreatment 1 hour, TGF-β1 1 ng/ml 48 hours, FIG. 4c/4d
# Protocol: MRC-5 and DHLF-IPF cells were each cultured in growth medium, and the medium was removed. […] The medium was then removed, and the cells were washed once with PBS. Intracellular total RNA was extracted from the cultured cells using TRIzol reagent (TaKaRa Bio Inc., Japan) for gene expression analysis. 1 mL of TRIzol reagent was added to lyse the cells and denature the tissue. The lysate was transferred to each 1.5 mL tube, and 200 μL of chloroform was added thereto, followed by vortexing for 20 seconds to ensure complete mixing. After incubating at room temperature for 15 minutes, the mixture was centrifuged at 14,000 rpm for 20 minutes to obtain the supernatant. After adding an equal volume of isopropyl alcohol, the tubes were inverted and incubated at room temperature for 10 minutes. The sample was centrifuged at 14,000 rpm for 15 minutes to obtain an RNA pellet, which was washed by centrifugation with 70% ethanol for use on RNA at 14,000 rpm for 5 minutes, and dried for 5 minutes. The dried RNA sample was added with 20 μL of distilled water treated with 0.1% diethyl pyrocarbonate (DEPC) to dissolve the pallet and the resultant was used as a sample for cDNA synthesis. 1 μL of the same was used to measure the RNA concentration and purity at O.D. 260/280 nm using a Nanodrop.
# Single-stranded cDNA synthesis was performed by mixing 1 μg of the extracted total RNA with 1 μL of oligo-d(T) primer ([…]) and 10 mM dNTP (TaKaRa Bio Inc., Japan), reacting at 65° C. for 5 minutes, followed by rapid cooling. To this template, 4 μL of 5×RT buffer, 0.5 μL of RNA inhibitor, and 100 units of RTase (TaKaRa Bio Inc., Japan) were added, and the total volume was adjusted to 20 μL using DEPC-treated distilled water. […]
# Each gene expression level was measured using real-time PCR. […] The specificity of the amplified product was confirmed through melting curve analysis, and the target genes were quantified and compared using GAPDH as a control gene.
# MRC-5 cells = test: Microscopic examination of cell morphology and proliferation, TGF-β1-induced MRC-5; type: cell-based, human; settings: MRC-5, TGF-β1-induced, microscope, FIG. 4a
# Protocol: The effects of the two candidate compounds of sulforaphane prodrugs on cytotoxicity and morphological changes in normal lung fibroblast MRC-5 cells and diseased lung fibroblast DHLF-IPF cells were examined. The diseased lung fibroblast DHLF-IPF cell line was purchased from Lonza and cultured in FGM™-2 Fibroblast Growth Medium-2 BulletKit™ at 37° C. in a 5% CO2 incubator.
# Additionally, the changes in cell morphology of two lung fibroblasts induced by TGF-β1 according to the treatments with Compound 1 and Compound 2 were examined with the naked eye through a microscope.
# DHLF-IPF cells = test: Transwell migration assay, DHLF-IPF; type: cell-based, human; settings: inherent high migration, 24 hours, FIG. 5
# Protocol: In accordance with the characteristics of myofibroblasts, in which the increased expression of proteins related to fibrogenesis leads to an increase of cell migration and invasion, migration and wound healing assays were conducted to examine the effects of the final selected Compound 1 and Compound 2 on cell migration using normal and diseased fibroblasts.
# A 24-well culture plate was prepared with 500 μL of medium including FBS, and an 8 μm pore size insert was placed on top. Inside the insert, 300 μL of medium without FBS was added, and MRC-5 and DHLF-IPF cells were seeded at a density of 1×10^5 cells. […] After incubation, the medium inside the 8 μm pore polycarbonate membrane insert was carefully removed, washed with DPBS, and fixed in methanol for 5 minutes. The cells were then stained with Mayer's Haematoxylin for 8 minutes after washing twice with triple-distilled water. The stained cells were washed with DPBS, gently wiped with a cotton swab inside the insert, and the membrane was cut out and mounted on a slide. The migrated cells were counted under a microscope at 200× magnification.
# [1] = test system: fibronectin, collagen 1, α-SMA; test: Immunohistochemistry of fibrosis-related proteins in lung tissue, BLM model; type: in vivo, C57BL/6N mice; settings: BLM mice; for expression of α-SMA, collagen, and fibronectin in lung tissue (IHC): compared to the BLM group
# Protocol: Specifically, 7-week-old C57BL/6N mice were exposed to BLM (3-5 units/kg) via the airway. The compounds were administered orally at doses of 200 μg/kg and 500 μg/kg for Compound 1, and 100 μg/kg and 200 μg/kg for Compound 2, three times a week for three weeks starting the day after BLM exposure. Body weight gain was periodically measured during the experimental period, and lung weight was measured at the end of the experiment.
# Specifically, the excised lung tissue was embedded in paraffin and sectioned into 4 μm slices using a microtome. These tissue sections were used for H&E, MT stain, and Immunohistochemistry (IHC). Each experiment was conducted by deparaffinizing and rehydrating the sections using xylene and ethanol. For IHC, the LSAB2 system HRP (DAKO, Carpinteria, CA, USA) kit was used. Antibody retrieval was performed in 0.1 mM citric acid (pH 6), and the experiment was conducted according to the provided instructions. The sections were blocked with blocking buffer at room temperature for 1 hour, then incubated overnight at 4° C. with primary antibodies (fibronectin, collagen 1, α-SMA). After blocking with secondary antibodies at room temperature for 1 hour, the Streptavidin-HRP system was used for 10 minutes, followed by exposure to DAB solution, hematoxylin staining, dehydration, clearing, and mounting with Canada balsam. The stained slides were examined under an optical microscope (BK51, Olympus, Japan). The staining results were quantified using the Image J program.
# To examine the key factors involved in fibrosis, immunohistochemistry (IHC) was performed using the same method as in Example 6-3.
Structure (SMILES),"gene expression levels of FN, COL1A1, and α-SMA (FN, COL1A1, and α-SMA)",cell morphology (MRC-5 cells),inhibition of cell proliferation compared to sulforaphane-treated group (MRC-5 cells),cell migration (transwell) (DHLF-IPF cells),concentration with the best inhibitory effect on weight recovery and related protein expression ([1]; 200 vs 500 μg/kg),"expression of α-SMA, collagen, and fibronectin in lung tissue (IHC) [1]"
CCOC(=O)C(CSC(=S)NCCCC[S+](C)[O-])NC(C)=O (centres unmarked) [Compound 1],significantly reducing the expression levels compared to sulforaphane,"thin and elongated shape, which is similar to that of the control group",inhibition of cell proliferation was more significant,significantly inhibited in a dose-dependent manner,200 µg/kg,significant reduction
C=CCOC(=O)C(CSC(=S)NCCCC[S+](C)[O-])NC(C)=O (centres unmarked) [Compound 2],significantly reducing the expression levels compared to sulforaphane,"thin and elongated shape, which is similar to that of the control group",inhibition of cell proliferation was more significant,significantly inhibited in a dose-dependent manner,–,significant reduction in the BLM+GSF-018 group in a dose-dependent manner
